Patent US20250064762A1, “A SUBSTITUTED AROMATIC DICARBONIC ACID AMIDE AS AN INHIBITOR OF THE FERROPTOSIS SUPPRESSOR PROTEIN-1 (FSP1)” (JULIUS-MAXIMILIANS-UNIVERSITÄT WÜRZBURG, priority 2021, published 2025)

Assays:
HT1080 cells [1] = assay: Western blot of ferroptosis regulators GPX4, ACSL4 and FSP1; assay type: cell-based, human; details: 100 μM CPBA; 16 h; liproxstatin-1 100 nM
Experimental: Cultured cells were lysed in 50 mM Tris, pH 7.5; 150 mM NaCl; 1% (v/v) Triton X-100; 0.5% (w/v) sodium deoxycholate; 0.1% (w/v) sodium dodecyl sulfate; 5 μg/mL aprotinin, 1 μg/mL leupeptin, 1 μg/mL pepstatin, and 1 mM 4-(2-aminoethyl)benzenesulfonyl fluoride (Pefabloc). Protein concentrations were determined using the Micro BCA Protein Assay Kit (Thermo Fisher Scientific). Proteins were separated by SDS-PAGE, transferred to nitrocellulose membranes by semidry-blotting, and incubated with the indicated antibodies.
Western blots were quantified using the public domain NIH Image program (developed at the U.S. National Institutes of Health, http://rsb.info.nih.gov/nih-image/). Statistical analysis was performed using GraphPad Prism version 7.05 or 9.1.2 (GraphPad, San Diego, CA, USA).
HT1080 cells were cultured in the presence of liproxstatin-1 (100 nM), and incubated for 16 h with the solvent control DMSO (0.1%), RSL3 (1 μM), FIN56 (10 μM), or BSO (100 μM) in the presence of either 0.1% DMSO (−) or 100 μM CPBA (+). Cells were lysed and probed with the indicated antibodies as described above. […] Quantification of relative intensity of Western Blot bands was performed as described above (see FIG. 7).

HT1080 cells [2] = assay: Lipid peroxidation, BODIPY 581/591-C11 probe, flow cytometry; assay type: cell-based, human; details: 100 μM CPBA; 16 h; subeffective RSL3, FIN56 or BSO
Experimental: Approximately 10,000 HT1080 cells were seeded per well of a 48-well dish. The next day, cells were treated for 16 h with DMSO (0.1%, solvent control), CPBA (100 μM), or liproxstatin-1 (100 nM) in the absence or presence of subeffective concentrations of RSL3 (50 nM), FIN56 (50 nM), or BSO (1 μM). Cells were incubated with the BODIPY 581/591-C11 probe (1 μM) for 30 min at 37° C. in a tissue culture incubator, harvested by trypsinization, and resuspended in 500 μL phosphate-buffered saline supplemented with 0.5 mg/mL soybean trypsin inhibitor (Sigma Aldrich). Cells were analyzed using the 488-nm laser of a flow cytometer (FACSCalibur, BD Biosciences) for excitation. […] At least 5,000 cells were analyzed per sample. […]
Effects of CPBA on cellular lipid peroxidation were investigated using a BODIPY 581/591-C11 probe as described above. […] Oxidation of the polyunsaturated butadienyl portion of the dye results in a shift of the fluorescence emission peak from about 595 nm (nonoxidized form) to about 520 nm (oxidized form) (see FIG. 8).
HT1080 cells were incubated for 16 h with DMSO (0.1%, solvent control), CPBA (100 μM), or liproxstatin-1 (lip-1, 100 nM) in the absence or presence of subeffective concentrations of RSL3 (50 nM), FIN56 (50 nM), or BSO (1 μM). Fluorescence intensity was quantified by flow cytometry using a 530 nm band-pass filter as described above and quantified. […]

[3] = tested on: mouse embryonic fibroblasts (MEFs); assay: FIN-induced ferroptosis in Pgp-wildtype or heterozygous Pgp-inactivated MEFs; assay type: cell-based
Experimental: Cells were seeded onto 96-well plates (5,000 cells per well), and treated with serial dilutions of ferroptosis-inducing compounds (erastin, BSO, RSL3, FIN56) or cytotoxic drugs (staurosporine, nocodazole, tunicamycin, paclitaxel, etoposide, menadione, rotenone, FCCP, carboplatin) in the absence or presence of CPBA or iFSP1 (100 μM or 10 μM, respectively; unless stated otherwise) or the DMSO solvent control. Ferroptotic cell death was evaluated by incubating in the absence or presence of liproxstatin-1 (100 nM), ferrostatin-1 (200 nM), or deferoxamine (100 μM). Cell viability was assessed after 16 h using AquaBluer as an indicator of viable cells according to the manufacturer's recommendations (MultiTarget Pharmaceuticals, LLC). Fluorescence (excitation, 540 nm; emission, 590 nm) was analyzed on a Clariostar microplater reader.
The above experiment was repeated in mouse embryonic fibroblasts (MEFs) generated from Pgp-wildtype (Pgp^fl/fl) or heterozygous Pgp-inactivated mouse embryos (Pgp^fl/D34N).

human FSP1 = target: T1, human FSP1 (Homo sapiens, UniProt Q9BRQ8); assay: Biolayer interferometry binding kinetics, human FSP1; details: 25° C.
T1 construct: His6 (N, cleaved yes); made in house; host or cells: Escherichia coli BL21 pG-Tf2
T1 sequence (Q9BRQ8 1-373): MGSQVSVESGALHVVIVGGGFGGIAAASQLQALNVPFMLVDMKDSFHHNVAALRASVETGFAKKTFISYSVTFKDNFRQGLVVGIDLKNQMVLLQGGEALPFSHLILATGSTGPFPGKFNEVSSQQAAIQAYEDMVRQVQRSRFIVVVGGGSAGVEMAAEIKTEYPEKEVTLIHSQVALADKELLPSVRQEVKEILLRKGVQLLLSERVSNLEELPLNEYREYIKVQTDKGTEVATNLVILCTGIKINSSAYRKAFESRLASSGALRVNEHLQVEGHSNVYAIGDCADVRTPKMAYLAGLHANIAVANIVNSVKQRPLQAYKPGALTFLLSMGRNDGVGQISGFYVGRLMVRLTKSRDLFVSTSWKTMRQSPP
Experimental: Purified, AviTag-fused mFSP1 or hFSP1 were enzymatically biotinylated with the E. coli biotin ligase BirA. To this end, FSP1 proteins (48 μM) were incubated with purified GST-BirA in the presence of ATP and D-biotin (Sigma Aldrich) as described (Fairhead et al., 2015). GST-BirA was removed using glutathione Sepharose 4 Fast Flow (GE Healthcare), and samples were dialyzed against TNM (pH 7.4) to remove free biotin.
Biotinylated, AviTag-fused mFSP1 or hFSP1 (1.5 μM in TNM buffer supplemented with 0.005% (v/v) Tween-20) was immobilized on streptavidin-coated biosensors (Super Streptavidin/SSA Dip and Read Biosensors, ForteBio). The sensors were then quenched with 27 μM biocytin (Sigma Aldrich), and binding kinetics were measured at 25° C. on a ForteBio Octet Red 96e instrument. Dissociation was initiated after 90 s. Reference sensors were quenched with 27 μM biocytin. Raw data was double referenced, and a global exponential regression 1:1 model was applied for kinetic analyses. Data are mean values±S.D. of at least n=4 measurements. KD, dissociation constant; Kon, on-rate constant; Koff, off-rate constant.
We also determined the CPBA and iFSP1 on-rate, off-rate and dissociation constants, which are associated with the binding and unbinding reaction of target and inhibitor. […]

Compound | expression of GPX4, ACSL4 and FSP1 (HT1080 cells [1]) | amount of lipid peroxidation (HT1080 cells [2]) | sensitization to FIN-induced ferroptosis in Pgp^fl/fl and Pgp^fl/D34N cells [3] | affinity for human FSP1 (human FSP1)
O=C(Nc1ccccc1C(=O)O)c1ccc(Oc2ccc(C(=O)Nc3ccccc3C(=O)O)cc2)cc1 [CPBA, 2-[[4-[4-[(2-carboxyphenyl)carbamoyl]phenoxy]benzoyl]amino]-benzoic acid] | not affected by the presence of CPBA | the amount of lipid peroxidation in the cells is increased | able to sensitize both Pgp^fl/fl and Pgp^fl/D34N cells to FIN-induced ferroptosis | the affinity of iFSP1 for human FSP1 exceeds the affinity of CPBA for human FSP1
Cc1ccc(-c2c(C#N)c(N)n3c(nc4ccccc43)c2C#N)cc1 [iFSP1, reference compound] | – | – | – | the affinity of iFSP1 for human FSP1 exceeds the affinity of CPBA for human FSP1
